The assay deals with L1210 leukemia ip in BDF1 mice, survival T/C. Description: NCI In Vivo Anticancer Drug Screen. Data for tumor model L1210 Leukemia (intraperitoneal) in B6D2F1 (BDF1) mice. To be noted: higher = longer survival. The method, boiled down: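 Ratio derived from survival: compound-dosed mice over vehicle-dosed mice, all bearing a transplantable tumor.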
Setting [1] is: endpoint: mean survival time, dose: 400.0 mg/kg/injection, schedule: Q01DX001 (ip), vehicle: saline.
The mark [2] stands for this setting: endpoint: mean survival time, dose: 100.0 mg/kg/injection, schedule: Q01DX001 (ip), vehicle: saline.
The mark [3] stands for this setting: endpoint: mean survival time, dose: 200.0 mg/kg/injection, schedule: Q01DX001 (ip), vehicle: saline.
Setting [4] is: endpoint: mean survival time, dose: 100.0 mg/kg/injection, schedule: Q01DX009 (ip), vehicle: Klucel (hydroxypropylcellulose) (HPC).
[5] abbreviates: endpoint: mean survival time, dose: 100.0 mg/kg/injection, schedule: Q04DX003 (ip), vehicle: Klucel (hydroxypropylcellulose) (HPC).
[6] abbreviates: endpoint: mean survival time, dose: 200.0 mg/kg/injection, schedule: Q01DX009 (ip), vehicle: Klucel (hydroxypropylcellulose) (HPC).
Where [7] appears, read: endpoint: mean survival time, dose: 200.0 mg/kg/injection, schedule: Q04DX003 (ip), vehicle: Klucel (hydroxypropylcellulose) (HPC).
The mark [8] stands for this setting: endpoint: mean survival time, dose: 400.0 mg/kg/injection, schedule: Q04DX003 (ip), vehicle: Klucel (hydroxypropylcellulose) (HPC).
[9] abbreviates: endpoint: mean survival time, dose: 100.0 mg/kg/injection, schedule: Q04DX002 (ip), vehicle: saline.
Where [10] appears, read: endpoint: mean survival time, dose: 200.0 mg/kg/injection, schedule: Q04DX002 (ip), vehicle: saline.
Setting [11] is: endpoint: mean survival time, dose: 100.0 mg/kg/injection, schedule: Q04DX002 (ip), vehicle: Klucel (hydroxypropylcellulose) (HPC).
The mark [12] stands for this setting: endpoint: mean survival time, dose: 200.0 mg/kg/injection, schedule: Q04DX002 (ip), vehicle: Klucel (hydroxypropylcellulose) (HPC).
Where [13] appears, read: endpoint: mean survival time, dose: 400.0 mg/kg/injection, schedule: Q04DX002 (ip), vehicle: Klucel (hydroxypropylcellulose) (HPC).
Where [14] appears, read: endpoint: mean survival time, dose: 100.0 mg/kg/injection, schedule: Q01DX001 (ip), vehicle: Klucel (hydroxypropylcellulose) (HPC).
[15] abbreviates: endpoint: mean survival time, dose: 200.0 mg/kg/injection, schedule: Q01DX001 (ip), vehicle: Klucel (hydroxypropylcellulose) (HPC).
[16] abbreviates: endpoint: mean survival time, dose: 400.0 mg/kg/injection, schedule: Q01DX001 (ip), vehicle: Klucel (hydroxypropylcellulose) (HPC).
[17] abbreviates: endpoint: mean survival time, dose: 50.0 mg/kg/injection, schedule: Q01DX009 (ip), vehicle: Klucel (hydroxypropylcellulose) (HPC).

Each structure is given as a SMILES string. Several values for one entry are separate records, joined by “and”; a condition that tells them apart may be missing. Equal values may be shown once. Toxic doses and inconclusive results are not listed.

Regarding `Nc1nc(SSc2nc(N)nc3c2ncn3C2CC(O)C(CO)O2)c2ncn(C3CC(O)C(CO)O3)c2n1` (stereo unspecified), the T/C by setting is: (endpoint: mean survival time, dose: 1.0 mg/kg/injection, schedule: Q01DX009 (ip), vehicle: saline) 212 % of control; (endpoint: mean survival time, dose: 2.0 mg/kg/injection, schedule: Q01DX009 (ip), vehicle: saline) 223 % of control; (endpoint: mean survival time, dose: 75.0 mg/kg/injection, schedule: Q01DX001 (ip), vehicle: saline) 100 % of control; (endpoint: mean survival time, dose: 119.0 mg/kg/injection, schedule: Q01DX009 (ip), vehicle: saline) 118 % of control; (endpoint: mean survival time, dose: 178.0 mg/kg/injection, schedule: Q01DX009 (ip), vehicle: saline) 116 % of control; (endpoint: mean survival time, dose: 267.0 mg/kg/injection, schedule: Q01DX001 (ip), vehicle: saline) 168 % of control. In addition, the T/C was 88 % of control (endpoint: mean survival time, dose: 267.0 mg/kg/injection, schedule: Q01DX009 (ip), vehicle: saline); 157 % of control and 178 % of control under setting [1]; 201 % of control (endpoint: mean survival time, dose: 600.0 mg/kg/injection, schedule: Q01DX001 (ip), vehicle: saline); 96 % of control (endpoint: mean survival time, dose: 31.3 micrograms/kg/injection, schedule: Q01DX009 (ip), vehicle: saline); 109 % of control (endpoint: mean survival time, dose: 62.5 micrograms/kg/injection, schedule: Q01DX009 (ip), vehicle: saline); 112 % of control (endpoint: mean survival time, dose: 125.0 micrograms/kg/injection, schedule: Q01DX009 (ip), vehicle: saline). Under “endpoint: mean survival time, dose: 250.0 micrograms/kg/injection, schedule: Q01DX009 (ip), vehicle: saline”, the T/C was 109 % of control.
On to `CCOC(=O)c1c[nH]c2oc(/C=N/N3CC(CN4CCOCC4)OC3=O)cc2c1=O` (stereo unspecified), for which the T/C (endpoint: median survival time, dose: 25.0 mg/kg/injection, schedule: Q01DX009 (ip), vehicle: acid diluted with saline) was 110 % of control; the T/C (endpoint: median survival time, dose: 50.0 mg/kg/injection, schedule: Q01DX009 (ip), vehicle: acid diluted with saline) was 111 % of control; the T/C (endpoint: median survival time, dose: 200.0 mg/kg/injection, schedule: Q01DX009 (ip), vehicle: acid diluted with saline) is 152 % of control.
Take `CCOC(=O)CCC(=O)OCC`: the T/C was 95 % of control under setting [2], 95 % of control under setting [3] and 93 % of control under setting [1].
For the compound `CCCCCCCCCCCCC(CCC)(OO)C(=O)OC` (stereo unspecified), the T/C reads like this: (endpoint: mean survival time, dose: 25.0 mg/kg/injection, schedule: Q04DX002 (ip), vehicle: saline with Tween-80) 98 % of control; (endpoint: mean survival time, dose: 50.0 mg/kg/injection, schedule: Q04DX002 (ip), vehicle: saline with Tween-80) 87 % of control; (endpoint: mean survival time, dose: 100.0 mg/kg/injection, schedule: Q04DX002 (ip), vehicle: saline with Tween-80) 98 % of control.
As for `COc1cc2nc3occc3c(OC)c2c2c1OC(C(C)(C)O)C2` (stereo unspecified), the T/C was 98 % of control (endpoint: mean survival time, dose: 50.0 mg/kg/injection, schedule: Q01DX001 (ip), vehicle: carboxymethylcellulose (CMC)); 117 % of control (endpoint: mean survival time, dose: 100.0 mg/kg/injection, schedule: Q01DX001 (ip), vehicle: carboxymethylcellulose (CMC)); 93 % of control (endpoint: mean survival time, dose: 200.0 mg/kg/injection, schedule: Q01DX001 (ip), vehicle: carboxymethylcellulose (CMC)).
Consider `Cc1ccc(Oc2c3c(nc4ccccc24)CCCC3)cc1`, for which the T/C under setting [4] is 104 % of control; the T/C under setting [5] is 101 % of control; the T/C under setting [6] is 98 % of control; the T/C under setting [7] was 96 % of control; the T/C (endpoint: mean survival time, dose: 400.0 mg/kg/injection, schedule: Q01DX009 (ip), vehicle: Klucel (hydroxypropylcellulose) (HPC)) was 96 % of control; the T/C under setting [8] was 93 % of control.
As to `COc1ccc(OC(C)OCCOCCO)cc1` (stereo unspecified), the T/C was 107 % of control under setting [9]; 93 % of control under setting [10]; 107 % of control (endpoint: mean survival time, dose: 400.0 mg/kg/injection, schedule: Q04DX002 (ip), vehicle: saline).
On to `NC(=O)OCC(COC(N)=O)(c1ccccc1)c1ccccc1`, for which the T/C (endpoint: mean survival time, dose: 45.0 mg/kg/injection, schedule: Q01DX001 (ip), vehicle: saline) is 101 % of control; the T/C (endpoint: mean survival time, dose: 67.0 mg/kg/injection, schedule: Q01DX001 (ip), vehicle: saline) was 95 % of control and 101 % of control; the T/C under setting [2] is 98 % of control; the T/C (endpoint: mean survival time, dose: 150.0 mg/kg/injection, schedule: Q01DX001 (ip), vehicle: saline) was 95 % of control and 104 % of control.
In the case of `O=C(NNC(=O)c1ccccc1)c1ccccc1`, the T/C under setting [11] is 101 % of control, the T/C under setting [12] was 101 % of control and the T/C under setting [13] was 101 % of control.
`COc1ccc(N=CC(=O)c2ccc(C)cc2)c([N+](=O)[O-])c1`: the T/C is 107 % of control under setting [14], 104 % of control under setting [15] and 95 % of control under setting [16].
Turning to `CCC(=O)/C=C/c1ccc([N+](=O)[O-])cc1`, the T/C runs as follows: (endpoint: mean survival time, dose: 100.0 mg/kg/injection, schedule: Q04DX003 (ip), vehicle: other) 101 % of control; (endpoint: mean survival time, dose: 200.0 mg/kg/injection, schedule: Q04DX003 (ip), vehicle: other) 93 % of control; (endpoint: mean survival time, dose: 400.0 mg/kg/injection, schedule: Q04DX003 (ip), vehicle: other) 93 % of control.
On to `O=S(=O)(Sc1ccc(Cl)cc1)c1ccc(Cl)cc1`, for which the T/C (endpoint: mean survival time, dose: 100.0 mg/kg/injection, schedule: Q04DX002 (ip), vehicle: gum acacia) is 101 % of control; the T/C (endpoint: mean survival time, dose: 200.0 mg/kg/injection, schedule: Q04DX002 (ip), vehicle: gum acacia) was 107 % of control and 91 % of control; the T/C (endpoint: mean survival time, dose: 400.0 mg/kg/injection, schedule: Q04DX002 (ip), vehicle: gum acacia) is 104 % of control.
Regarding `C(=C/c1ccccc1)/C[P+](c1ccccc1)(c1ccccc1)c1ccccc1`, the T/C was 97 % of control (endpoint: mean survival time, dose: 1.25 mg/kg/injection, schedule: Q01DX009 (ip), vehicle: saline with Tween-80); 94 % of control (endpoint: mean survival time, dose: 2.5 mg/kg/injection, schedule: Q01DX009 (ip), vehicle: saline with Tween-80); 98 % of control (endpoint: mean survival time, dose: 5.0 mg/kg/injection, schedule: Q01DX009 (ip), vehicle: saline with Tween-80); 98 % of control (endpoint: mean survival time, dose: 5.0 mg/kg/injection, schedule: Q04DX003 (ip), vehicle: saline with Tween-80); 86 % of control (endpoint: mean survival time, dose: 10.0 mg/kg/injection, schedule: Q04DX003 (ip), vehicle: saline with Tween-80); 90 % of control (endpoint: mean survival time, dose: 20.0 mg/kg/injection, schedule: Q04DX003 (ip), vehicle: saline with Tween-80).
Take `CNc1ncnc2nn(C)c(C#N)c12`: the T/C is 106 % of control (endpoint: mean survival time, dose: 50.0 mg/kg/injection, schedule: Q04DX002 (ip), vehicle: saline); 95 % of control under setting [9]; 103 % of control under setting [10].
`c1ccc(N2CCN(c3ccccc3)CC2)cc1`: the T/C was 98 % of control (endpoint: mean survival time, dose: 100.0 mg/kg/injection, schedule: Q01DX009 (ip), vehicle: saline with Tween-80) and 86 % of control (endpoint: mean survival time, dose: 200.0 mg/kg/injection, schedule: Q01DX009 (ip), vehicle: saline with Tween-80).
For `COc1ccc(/C=C/c2nccc3ccccc23)cc1OC`, the T/C is, setting by setting: (endpoint: mean survival time, dose: 50.0 mg/kg/injection, schedule: Q04DX002 (ip), vehicle: Klucel (hydroxypropylcellulose) (HPC)) 105 % of control; under setting [11], 102 % of control; under setting [12], 96 % of control and 108 % of control; under setting [13], 89 % of control.
With `S=C=NC1CCC(CC2CCCCC2)CC1` (stereo unspecified), the T/C is, setting by setting: (endpoint: mean survival time, dose: 25.0 mg/kg/injection, schedule: Q01DX009 (ip), vehicle: Klucel (hydroxypropylcellulose) (HPC)) 105 % of control; under setting [17], 94 % of control; under setting [4], 93 % of control and 96 % of control; under setting [5], 98 % of control; under setting [7], 101 % of control; under setting [8], 103 % of control.
Consider `c1ccc(-c2cc3ccccc3[nH]2)cc1`, for which the T/C is 98 % of control under setting [14], 96 % of control under setting [15], 94 % of control under setting [6] and 102 % of control under setting [16].
For `O=C(OCCBr)c1ccc([N+](=O)[O-])cc1`, the T/C runs as follows: under setting [17], 100 % of control; under setting [4], 106 % of control; under setting [6], 97 % of control.
As for `COc1cc(C)ccc1C1OC(=O)c2c1ccc(OC)c2OC` (stereo unspecified), the T/C under setting [2] is 97 % of control, the T/C under setting [3] was 101 % of control and the T/C under setting [1] is 92 % of control.

The values above are taken from PubChem BioAssay AID248 (DTP/NCI, 2004).
